Several values for one entry are separate records, joined by “and”; a condition that tells them apart may be missing. Equal entries are not always repeated. Toxic doses and inconclusive results are not listed. The calls were made as follows: active = survival T/C of 150% or more; inactive = T/C below 125% in these data. Square brackets hold non-standard residues; d marks the D form. Peptide text beside a SMILES is read from it. Nle = CCCC[CH](N)C(=O)O
System: P388 leukemia ip, CD2F1 mice, survival T/C
Test: NCI In Vivo Anticancer Drug Screen. Data for tumor model P388 Leukemia (intraperitoneal) in CD2F1 (CDF1) mice
Settings: endpoint: median survival time, higher = longer survival
In short: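 Mice carrying the transplanted tumor received test compound or vehicle. Survival was recorded in each group, and the value is the treated-group measurement divided by that of the vehicle-treated control group.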

[1] = dose: 6.25 mg/kg/injection, schedule: Q01DX009 (ip), vehicle: saline
[2] = dose: 12.5 mg/kg/injection, schedule: Q01DX009 (ip), vehicle: saline
[3] = dose: 12.5 mg/kg/injection, schedule: Q01DX005 (ip), vehicle: Klucel (hydroxypropylcellulose) (HPC)
[4] = dose: 25.0 mg/kg/injection, schedule: Q01DX005 (ip), vehicle: Klucel (hydroxypropylcellulose) (HPC)
[5] = dose: 50.0 mg/kg/injection, schedule: Q01DX009 (ip), vehicle: saline
[6] = dose: 100.0 mg/kg/injection, schedule: Q01DX009 (ip), vehicle: saline
[7] = dose: 200.0 mg/kg/injection, schedule: Q01DX009 (ip), vehicle: saline
[8] = dose: 50.0 mg/kg/injection, schedule: Q01DX005 (ip), vehicle: saline
[9] = dose: 100.0 mg/kg/injection, schedule: Q01DX005 (ip), vehicle: saline
[10] = dose: 200.0 mg/kg/injection, schedule: Q01DX005 (ip), vehicle: saline
[11] = dose: 25.0 mg/kg/injection, schedule: Q01DX009 (ip), vehicle: saline with Tween-80
[12] = dose: 50.0 mg/kg/injection, schedule: Q01DX009 (ip), vehicle: saline with Tween-80
[13] = dose: 100.0 mg/kg/injection, schedule: Q01DX009 (ip), vehicle: saline with Tween-80
[14] = dose: 200.0 mg/kg/injection, schedule: Q01DX009 (ip), vehicle: saline with Tween-80
[15] = dose: 60.0 mg/kg/injection, schedule: Q01DX005 (ip), vehicle: Klucel (hydroxypropylcellulose) (HPC)
[16] = dose: 120.0 mg/kg/injection, schedule: Q01DX005 (ip), vehicle: Klucel (hydroxypropylcellulose) (HPC)
[17] = dose: 240.0 mg/kg/injection, schedule: Q01DX005 (ip), vehicle: Klucel (hydroxypropylcellulose) (HPC)
[18] = dose: 25.0 mg/kg/injection, schedule: Q01DX009 (ip), vehicle: saline

Measured: T/C

CCCCCCCCCCCCCCCC[N+](C)(C)C
inactive: dose: 1.56 mg/kg/injection, schedule: Q01DX009 (ip), vehicle: saline 99 % of control and 115 % of control and 120 % of control | dose: 1.56 mg/kg/injection, schedule: Q04DX003 (ip), vehicle: saline with Tween-80 100 % of control | dose: 2.0 mg/kg/injection, schedule: Q01DX009 (ip), vehicle: saline 113 % of control | dose: 3.12 mg/kg/injection, schedule: Q01DX009 (ip), vehicle: saline 118 % of control and 121 % of control | dose: 3.13 mg/kg/injection, schedule: Q01DX009 (ip), vehicle: saline 109 % of control | dose: 3.13 mg/kg/injection, schedule: Q04DX003 (ip), vehicle: saline with Tween-80 104 % of control | dose: 4.7 mg/kg/injection, schedule: Q01DX009 (ip), vehicle: saline 86 % of control | dose: 6.25 mg/kg/injection, schedule: Q04DX003 (ip), vehicle: saline with Tween-80 100 % of control and 112 % of control

CC[N](CC)[Ge]([CH2]C)[CH2]C.CC[N](CC)[Ge]([CH2]C)[CH2]C
inactive: [1] 106 % of control | [2] 109 % of control | dose: 50.0 mg/kg/injection, schedule: Q04DX003 (ip), vehicle: saline 116 % of control | dose: 100.0 mg/kg/injection, schedule: Q04DX003 (ip), vehicle: saline 114 % of control

C=CCc1cc2c(cc1Cc1ccc(OC)cc1)OCO2
inactive: dose: 50.0 mg/kg/injection, schedule: Q01DX005 (ip), vehicle: distilled water + alcohol 109 % of control | dose: 100.0 mg/kg/injection, schedule: Q01DX005 (ip), vehicle: distilled water + alcohol 104 % of control | dose: 200.0 mg/kg/injection, schedule: Q01DX005 (ip), vehicle: distilled water + alcohol 109 % of control

O=C1C=CC(O)C2C1CC13SSC4(CC5C(=O)C=CC(O)C5N4C1=O)C(=O)N23 (configuration not stated)
inactive: dose: 4.0 mg/kg/injection, schedule: Q01DX009 (ip), vehicle: Klucel (hydroxypropylcellulose) (HPC) 107 % of control | dose: 8.0 mg/kg/injection, schedule: Q01DX009 (ip), vehicle: Klucel (hydroxypropylcellulose) (HPC) 102 % of control

C=C1C(=O)OC2C1C(OC(=O)/C(C)=C/C)CC1(C)C(O)CCC(=C)C21 (configuration not stated)
inactive: [3] 106 % of control | [4] 107 % of control | dose: 50.0 mg/kg/injection, schedule: Q01DX005 (ip), vehicle: Klucel (hydroxypropylcellulose) (HPC) 114 % of control | dose: 100.0 mg/kg/injection, schedule: Q01DX005 (ip), vehicle: Klucel (hydroxypropylcellulose) (HPC) 107 % of control | dose: 200.0 mg/kg/injection, schedule: Q01DX005 (ip), vehicle: Klucel (hydroxypropylcellulose) (HPC) 98 % of control

O=S(=O)(c1cnccc1N1CCN(CCO)CC1)N1CCCC1
inactive: [5] 106 % of control | [6] 101 % of control | [7] 87 % of control

CCCCC(N)C(=O)NC(CCSC)C(N)=O (configuration not stated) (H-[Nle]-Met-NH2; configuration not given here)
inactive: [8] 100 % of control | [9] 105 % of control | [10] 100 % of control

O=C1C(N=Nc2ccccc2)C(O)N(c2ccc(Cl)cc2)C(=S)N1c1cccc(Cl)c1Cl (configuration not stated)
inactive: dose: 100.0 mg/kg/injection, schedule: Q04DX002 (ip), vehicle: Klucel (hydroxypropylcellulose) (HPC) 100 % of control | dose: 200.0 mg/kg/injection, schedule: Q04DX002 (ip), vehicle: Klucel (hydroxypropylcellulose) (HPC) 100 % of control | dose: 400.0 mg/kg/injection, schedule: Q04DX002 (ip), vehicle: Klucel (hydroxypropylcellulose) (HPC) 99 % of control

COc1cc(C)ccc1C1OC(=O)c2c1ccc(OC)c2OC (configuration not stated)
inactive: [11] 106 % of control | [12] 101 % of control | [13] 97 % of control | [14] 108 % of control

CCOC1(OCC)CC(c2ccccc2)c2cnn(-c3ccccc3)c2O1 (configuration not stated)
inactive: [15] 92 % of control | [16] 93 % of control | [17] 87 % of control

CCN(CC)CCn1nc2n(c(=O)c1=O)CC(=O)N(C)c1ccc(Cl)cc1-2
inactive: [5] 105 % of control | [6] 105 % of control | [7] 99 % of control

CCOC(=O)Nc1cc(NCC(=O)c2ccc3ccccc3c2)c([N+](=O)[O-])c(N)n1
inactive: [15] 92 % of control | [16] 91 % of control | [17] 98 % of control

C=C(C)CC1C(=O)OC(=O)C1(CC(=C)C)CC(=C)C (configuration not stated)
inactive: [5] 100 % of control | [6] 99 % of control | [7] 93 % of control

O=C1OCCOCCSCCOCCOC(=O)c2cccc1n2
inactive: dose: 100.0 mg/kg/injection, schedule: Q04DX003 (ip), vehicle: Klucel (hydroxypropylcellulose) (HPC) 101 % of control | dose: 200.0 mg/kg/injection, schedule: Q04DX003 (ip), vehicle: Klucel (hydroxypropylcellulose) (HPC) 102 % of control | dose: 400.0 mg/kg/injection, schedule: Q04DX003 (ip), vehicle: Klucel (hydroxypropylcellulose) (HPC) 100 % of control

Cc1cc2ccccc2c2c(C)c3cccc[n+]3cc12
inactive: dose: 6.25 mg/kg/injection, schedule: Q04DX003 (ip), vehicle: other 114 % of control | dose: 12.5 mg/kg/injection, schedule: Q04DX003 (ip), vehicle: other 110 % of control | dose: 25.0 mg/kg/injection, schedule: Q04DX003 (ip), vehicle: other 110 % of control

CC(=O)Nc1ccc(S(=O)(=O)NC2C(O)OC(CO)C(O)C2O)cc1 (configuration not stated)
inactive: [8] 95 % of control | [9] 105 % of control | [10] 97 % of control

CC(C)COP(=O)([O-])OCC[N+](C)(C)C
inactive: dose: 100.0 mg/kg/injection, schedule: Q01DX001 (ip), vehicle: Klucel (hydroxypropylcellulose) (HPC) 104 % of control | dose: 200.0 mg/kg/injection, schedule: Q01DX001 (ip), vehicle: Klucel (hydroxypropylcellulose) (HPC) 98 % of control | dose: 400.0 mg/kg/injection, schedule: Q01DX001 (ip), vehicle: Klucel (hydroxypropylcellulose) (HPC) 100 % of control

O=[N+]([O-])c1cc(NC(=S)SCc2ccc3c(c2)OCO3)ccc1Cl
inactive: dose: 50.0 mg/kg/injection, schedule: Q01DX009 (ip), vehicle: suspension in saline 110 % of control | dose: 100.0 mg/kg/injection, schedule: Q01DX009 (ip), vehicle: suspension in saline 114 % of control | dose: 200.0 mg/kg/injection, schedule: Q01DX009 (ip), vehicle: suspension in saline 87 % of control

O=c1[nH]c(=O)n(C2CC(O)C(CO)O2)cc1S (configuration not stated)
inactive: [2] 99 % of control and 101 % of control and 105 % of control | [18] 100 % of control (2×) and 111 % of control | [5] 101 % of control and 111 % of control and 118 % of control

CC1SC2(C(=O)Nc3ccccc32)N(c2ccc(O)cc2)C1=O (configuration not stated)
inactive: [15] 91 % of control | [16] 100 % of control | [17] 94 % of control

N#Cc1ccc(N=Cc2ccc(C=Nc3ccc(C#N)c(C#N)c3)cc2)cc1C#N
inactive: dose: 12.5 mg/kg/injection, schedule: Q01DX009 (ip), vehicle: saline with Tween-80 93 % of control | [11] 104 % of control | [12] 88 % of control | [13] 87 % of control | [14] 97 % of control

CC1(c2ccccc2)NC(=O)N(CC(=O)N(c2ccccc2)c2ccccc2)C1=O (configuration not stated)
inactive: dose: 7.5 mg/kg/injection, schedule: Q01DX005 (ip), vehicle: saline with Tween-80 91 % of control | dose: 15.0 mg/kg/injection, schedule: Q01DX005 (ip), vehicle: saline with Tween-80 92 % of control | dose: 30.0 mg/kg/injection, schedule: Q01DX005 (ip), vehicle: saline with Tween-80 92 % of control and 93 % of control | dose: 60.0 mg/kg/injection, schedule: Q01DX005 (ip), vehicle: saline with Tween-80 87 % of control and 88 % of control | dose: 120.0 mg/kg/injection, schedule: Q01DX005 (ip), vehicle: saline with Tween-80 86 % of control | dose: 240.0 mg/kg/injection, schedule: Q01DX005 (ip), vehicle: saline with Tween-80 94 % of control

COc1cc2c3c(c1OC)C(=O)C[C@@H]1CCCN(CC2)[C@H]31
inactive: [3] 99 % of control | [4] 98 % of control

CN(/N=C/c1ccccc1O)C(=O)c1ccccc1N
inactive: [12] 105 % of control | [13] 107 % of control | [14] 104 % of control

COc1cc(C(=O)O)cc(C(=O)O)c1
inactive: [1] 99 % of control | [2] 107 % of control | [18] 100 % of control
